Experimental data as given in patent publication US20260232619A1, “TREATMENT OF NEUROLOGICAL DISORDERS WITH ALLICIN AND ANALOGUES THEREOF” (KATHOLIEKE UNIVERSITEIT LEUVEN, priority 2023, published 2026).
Entries after “also recorded” stand apart in the source; their conditions may differ.

Tests used:
[1] = tested on: scn1lab−/− larvae; assay: Non-invasive local field potential (LFP) recordings in zebrafish scn1lab−/− mutant model of Dravet syndrome; type: in vivo, zebrafish (Danio rerio)
Procedure: (§1) FIG. 2. […] (A) Anti-seizure treatment schedule: 3 dpf scn1lab−/− larvae were exposed to the MTC of allicin or VHC control. 2 days later, abnormal locomotor behavior and epileptiform brain activity of treated larvae was analyzed using an automated tracking device (Noldus) and local field potential recordings, respectively. (B) The normalized cumulative duration of activity (%) is represented as mean±SEM. According to the treatment schedule depicted in panel A, anti-seizure effect of allicin was examined in scnLab−/− larvae at 5 dpf (n=22), and compared to VHC treated scnLab−/− larvae (n=24). VHC treated scn1Lab+/+ larvae (n=24) were included as control. (C) The average number of epileptiform events per 10-minute recording is represented as mean±SEM. Treatment schedule depicted in panel A was followed. Accordingly, electrophysiological effect of allicin was examined in scnLab−/− larvae at 5 dpf (n=15), and compared to VHC treated scnLab−/− larvae (n=15). VHC treated scn1Lab+/+ larvae (n=8) were included as control (D) Early treatment schedule: 1 dpf scn1lab−/− larvae were dechorionated and exposed to the MTC of allicin or VHC control. 2 days later, swimming medium of the larvae was replenished with identical concentrations of allicin or VHC, respectively. At 5 dpf, abnormal locomotor behavior and epileptiform brain activity of treated larvae was analyzed using an automated tracking device (Noldus) and local field potential recordings, respectively. (continued on page 6)(continued from page 5) (E) The normalized cumulative duration of activity (%) is represented as mean±SEM. […] At 5 dpf, abnormal locomotor behavior and epileptiform brain activity of treated larvae was analyzed using an automated tracking device (Noldus) and local field potential recordings, respectively. […]
(§2) The mutant larval fish typically develop signs of epilepsy (hyperlocomotor activity, abnormal brain electrical discharges as assessed by Local Field Potential (LFP) measurements) at 4-5 dpf (days post-fertilization). […]

[2] = tested on: scn1lab−/− larvae; assay: Locomotor activity assessment in zebrafish scn1lab−/− mutant model of Dravet syndrome; type: in vivo, zebrafish (Danio rerio)
Procedure: as §1, §2

C=CCS[S@@+]([O-])CC=C (racemic) [allicin, S-(Prop-2-en-1-yl) prop-2-ene-1-sulfinothioate] was tested, and the “epileptiform brain activity compared to VHC treated controls” value ([1]; anti-seizure treatment schedule: allicin at MTC from 3 dpf onwards (after seizure onset), LFP at 5 dpf (FIG. 2C)) was “did not demonstrate significant decreases; also recorded: rescue effect is not present”, the epileptiform events ([1]; early treatment schedule: dechorionated at 1 dpf, exposed to allicin at MTC for 4 days, LFP at 5 dpf (FIG. 2F)) was “significantly reduced to similar levels as observed in wild-type and heterozygous siblings” and the “typical symptoms of epilepsy: abnormal brain electrical discharges” value ([1]; exposed during the 0-3 dpf period to non-toxic concentrations, measured at 5 dpf (data not shown)) was “are not present”. The “abnormal locomotor behavior (hyperlocomotor activity) compared to VHC treated controls” value ([2]; anti-seizure treatment schedule: allicin at MTC from 3 dpf onwards (after seizure onset), measured at 5 dpf (FIG. 2B)) was “did not demonstrate significant decreases; also recorded: rescue effect is not present”, the “abnormal hyperactive behavior compared to VHC controls” value ([2]; early treatment schedule: dechorionated at 1 dpf, exposed to allicin at MTC for 4 days, measured at 5 dpf (FIG. 2E)) was “highly significant decreases” and the “typical symptoms of epilepsy: hyperlocomotor activity” value ([2]; exposed during the 0-3 dpf period to non-toxic concentrations, measured at 5 dpf) was “are not present”.
